Laboratory results from paper doi:10.1101/2021.06.23.449549v1 (biorxiv, 2021).

Tests used:
AtPQT11/CYP86A4 = biological target: T1, AtPQT11/CYP86A4 (Arabidopsis thaliana, UniProt Q9LMM1); assay type: biochemical; conditions: 2 mM NADPH in excess; 25 mM phosphate pH 7.0; 27 °C; N-demethylation
T1 sequence (Q9LMM1 1-554): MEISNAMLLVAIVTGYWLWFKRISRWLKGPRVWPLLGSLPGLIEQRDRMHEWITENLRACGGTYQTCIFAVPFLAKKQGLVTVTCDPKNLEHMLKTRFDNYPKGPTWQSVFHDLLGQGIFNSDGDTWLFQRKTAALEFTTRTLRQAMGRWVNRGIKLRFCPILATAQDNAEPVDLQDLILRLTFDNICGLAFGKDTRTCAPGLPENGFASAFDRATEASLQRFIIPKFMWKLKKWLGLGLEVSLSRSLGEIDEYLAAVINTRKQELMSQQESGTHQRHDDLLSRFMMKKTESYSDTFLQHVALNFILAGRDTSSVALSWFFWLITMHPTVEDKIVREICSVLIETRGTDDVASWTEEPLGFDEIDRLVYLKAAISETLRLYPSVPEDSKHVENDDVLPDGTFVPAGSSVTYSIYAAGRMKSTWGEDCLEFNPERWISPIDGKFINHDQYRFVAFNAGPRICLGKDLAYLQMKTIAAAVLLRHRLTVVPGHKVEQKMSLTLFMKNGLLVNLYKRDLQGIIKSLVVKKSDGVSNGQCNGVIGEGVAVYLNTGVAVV

purified protein = substrate: NC(=O)C1=CN([C@@H]2O[C@H](COP(=O)(O)OP(=O)(O)OC[C@H]3O[C@@H](n4cnc5c(N)ncnc54)[C@H](OP(=O)(O)O)[C@@H]3O)[C@@H](O)[C@H]2O)C=CC1; test: purified protein; assay type: biochemical, Arabidopsis thaliana; conditions: pH 7.0; 27.0 °C; varied: cofactor

C[n+]1ccc(-c2cc[n+](C)cc2)cc1 [paraquat, 1,1’-dimethyl-4,4’-bipyridynium dichloride]
Km (AtPQT11/CYP86A4): 1.34 µM

B1: AtPQT11/CYP86A4 (Arabidopsis thaliana) (protein)
chain: MEISNAMLLVAIVTGYWLWFKRISRWLKGPRVWPLLGSLPGLIEQRDRMHEWITENLRACGGTYQTCIFAVPFLAKKQGLVTVTCDPKNLEHMLKTRFDNYPKGPTWQSVFHDLLGQGIFNSDGDTWLFQRKTAALEFTTRTLRQAMGRWVNRGIKLRFCPILATAQDNAEPVDLQDLILRLTFDNICGLAFGKDTRTCAPGLPENGFASAFDRATEASLQRFIIPKFMWKLKKWLGLGLEVSLSRSLGEIDEYLAAVINTRKQELMSQQESGTHQRHDDLLSRFMMKKTESYSDTFLQHVALNFILAGRDTSSVALSWFFWLITMHPTVEDKIVREICSVLIETRGTDDVASWTEEPLGFDEIDRLVYLKAAISETLRLYPSVPEDSKHVENDDVLPDGTFVPAGSSVTYSIYAAGRMKSTWGEDCLEFNPERWISPIDGKFINHDQYRFVAFNAGPRICLGKDLAYLQMKTIAAAVLLRHRLTVVPGHKVEQKMSLTLFMKNGLLVNLYKRDLQGIIKSLVVKKSDGVSNGQCNGVIGEGVAVYLNTGVAVV
Km (purified protein): 1155 (±214.9) μM
